In ChEMBL document CHEMBL1201862, “PubChem BioAssay data set” (2004):
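In this assay, cells in 96-well plates receive the compound at five concentrations for 48 hours. Endpoints are linearly interpolated between the surrounding concentrations. At the GI50, growth is halved.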 Calls of active or inactive are those of the source. Cut-off read from the data, not from the text of the source: active = GI50 up to about 1.1 µM and inactive = higher.

Assays:
Experiment in all cases: growth of human tumour cells (NCI), 48 h
NCI-H23 = test system: NCI-H23
OVCAR-3 = test system: OVCAR-3
SW-620 = test system: SW-620
A549 = test system: A549
LOX IMVI = test system: LOX IMVI
RPMI-8226 = test system: RPMI-8226
CCRF-CEM = test system: CCRF-CEM
M19-MEL = test system: M19-MEL
SNB-75 = test system: SNB-75
KM-20L2 = test system: KM-20L2
SF-539 = test system: SF-539
OVCAR-8 = test system: OVCAR-8
SNB-19 = test system: SNB-19
SNB-78 = test system: SNB-78
NCI-H226 = test system: NCI-H226
A498 = test system: A498
IGROV-1 = test system: IGROV-1
SF-295 = test system: SF-295
DLD-1 = test system: DLD-1
SN12C = test system: SN12C
NCI-H460 = test system: NCI-H460
CAKI-1 = test system: CAKI-1
HOP-92 = test system: HOP-92
SK-MEL-5 = test system: SK-MEL-5
HT-29 = test system: HT-29
SK-OV-3 = test system: SK-OV-3
TK-10 = test system: TK-10
OVCAR-4 = test system: OVCAR-4
ACHN = test system: ACHN
U-251 = test system: U-251
SK-MEL-2 = test system: SK-MEL-2
SF-268 = test system: SF-268
K562 = test system: K562
KM12 = test system: KM12
DMS-114 = test system: DMS-114
UACC-257 = test system: UACC-257
UO-31 = test system: UO-31
COLO 205 = test system: COLO 205
Malme-3M = test system: Malme-3M
786-0 = test system: 786-0
HL-60 = test system: HL-60
M14 = test system: M14
EKVX = test system: EKVX
HCC 2998 = test system: HCC 2998
HOP-62 = test system: HOP-62
MOLT-4 = test system: MOLT-4
LXFL 529 = test system: LXFL 529
SK-MEL-28 = test system: SK-MEL-28
RXF 393 = test system: RXF 393
NCI-H522 = test system: NCI-H522
OVCAR-5 = test system: OVCAR-5
NCI/ADR-RES = test system: NCI/ADR-RES
T47D = test system: T47D
DU-145 = test system: DU-145
UACC-62 = test system: UACC-62
HCT-15 = test system: HCT-15
MDA-MB-231 = test system: MDA-MB-231
Hs-578T = test system: Hs-578T
SR = test system: SR
MDA-N = test system: MDA-N
MCF7 = test system: MCF7
PC-3 = test system: PC-3
HCT-116 = test system: HCT-116
BT-549 = test system: BT-549
MDA-MB-435 = test system: MDA-MB-435

SMILES: CC1=C(C(=O)Nc2cc(=O)n(C)c(=O)n2C)C(c2cccc([N+](=O)[O-])c2)C(C(=O)Nc2cc(=O)n(C)c(=O)n2C)=C(C)N1
- GI50 (NCI-H23): > 100 µM (inactive)
- GI50 (OVCAR-3): > 100 µM (inactive)
- GI50 (SW-620): > 100 µM (inactive)
- GI50 (A549): > 100 µM (inactive)
- GI50 (LOX IMVI): > 100 µM (inactive)
- GI50 (RPMI-8226): 62.5 µM (inactive)
- GI50 (CCRF-CEM): > 100 µM (inactive)
- GI50 (M19-MEL): > 100 µM (inactive)
- GI50 (SNB-75): 17.5 µM (inactive)
- GI50 (KM-20L2): > 100 µM (inactive)
- GI50 (SF-539): 26.7 µM (inactive)
- GI50 (OVCAR-8): > 100 µM (inactive)
- GI50 (SNB-19): > 100 µM (inactive)
- GI50 (SNB-78): > 100 µM (inactive)
- GI50 (NCI-H226): > 100 µM (inactive)
- GI50 (A498): 49.5 µM (inactive)
- GI50 (IGROV-1): > 100 µM (inactive)
- GI50 (SF-295): > 100 µM (inactive)
- GI50 (DLD-1): > 100 µM (inactive)
- GI50 (SN12C): > 100 µM (inactive)
- GI50 (NCI-H460): 62.7 µM (inactive)
- GI50 (CAKI-1): > 100 µM (inactive)
- GI50 (HOP-92): 58.7 µM (inactive)
- GI50 (SK-MEL-5): 74.6 µM (inactive)
- GI50 (HT-29): > 100 µM (inactive)
- GI50 (SK-OV-3): > 100 µM (inactive)
- GI50 (TK-10): > 100 µM (inactive)
- GI50 (OVCAR-4): > 100 µM (inactive)
- GI50 (ACHN): 89.7 µM (inactive)
- GI50 (U-251): > 100 µM (inactive)
- GI50 (SK-MEL-2): > 100 µM (inactive)
- GI50 (SF-268): > 100 µM (inactive)
- GI50 (K562): 72.4 µM (inactive)
- GI50 (KM12): > 100 µM (inactive)
- GI50 (DMS-114): 80.5 µM (inactive)
- GI50 (UACC-257): > 100 µM (inactive)
- GI50 (UO-31): 56.1 µM (inactive)
- GI50 (COLO 205): > 100 µM (inactive)
- GI50 (Malme-3M): > 100 µM (inactive)
- GI50 (786-0): > 100 µM (inactive)
- GI50 (HL-60): > 100 µM (inactive)
- GI50 (M14): > 100 µM (inactive)
- GI50 (EKVX): 15.9 µM (inactive)
- GI50 (HCC 2998): 31.5 µM (inactive)
- GI50 (HOP-62): > 100 µM (inactive)
- GI50 (MOLT-4): 42.6 µM (inactive)
- GI50 (LXFL 529): > 100 µM (inactive)
- GI50 (SK-MEL-28): > 100 µM (inactive)
- GI50 (RXF 393): > 100 µM (inactive)
- GI50 (NCI-H522): 44.5 µM (inactive)
- GI50 (OVCAR-5): > 100 µM (inactive)

SMILES: Cc1ccc(NC(=O)c2cc(S(=O)(=O)Nc3nc4cccnc4[nH]3)c(SSc3cc(Cl)c(C(=O)Nc4ccc(C)cc4)cc3S(=O)(=O)Nc3nc4cccnc4[nH]3)cc2Cl)cc1
- GI50 (NCI-H23): > 100 µM (inactive)
- GI50 (OVCAR-3): > 100 µM (inactive)
- GI50 (SW-620): > 100 µM (inactive)
- GI50 (A549): > 100 µM (inactive)
- GI50 (NCI/ADR-RES): > 100 µM (inactive)
- GI50 (LOX IMVI): > 100 µM (inactive)
- GI50 (RPMI-8226): > 100 µM (inactive)
- GI50 (CCRF-CEM): > 100 µM (inactive)
- GI50 (SNB-75): > 100 µM (inactive)
- GI50 (T47D): > 100 µM (inactive)
- GI50 (DU-145): > 100 µM (inactive)
- GI50 (UACC-62): > 100 µM (inactive)
- GI50 (SF-539): > 100 µM (inactive)
- GI50 (OVCAR-8): > 100 µM (inactive)
- GI50 (SNB-19): > 100 µM (inactive)
- GI50 (NCI-H226): > 100 µM (inactive)
- GI50 (A498): > 100 µM (inactive)
- GI50 (IGROV-1): > 100 µM (inactive)
- GI50 (SF-295): > 100 µM (inactive)
- GI50 (HCT-15): > 100 µM
- GI50 (SN12C): > 100 µM (inactive)
- GI50 (NCI-H460): > 100 µM (inactive)
- GI50 (CAKI-1): > 100 µM (inactive)
- GI50 (HOP-92): > 100 µM (inactive)
- GI50 (MDA-MB-231): > 100 µM (inactive)
- GI50 (SK-MEL-5): > 100 µM (inactive)
- GI50 (HT-29): > 100 µM (inactive)
- GI50 (SK-OV-3): > 100 µM (inactive)
- GI50 (Hs-578T): > 100 µM (inactive)
- GI50 (TK-10): > 100 µM (inactive)
- GI50 (OVCAR-4): > 100 µM (inactive)
- GI50 (ACHN): > 100 µM (inactive)
- GI50 (U-251): > 100 µM (inactive)
- GI50 (SK-MEL-2): > 100 µM (inactive)
- GI50 (SF-268): > 100 µM (inactive)
- GI50 (K562): > 100 µM (inactive)
- GI50 (KM12): > 100 µM (inactive)
- GI50 (UACC-257): > 100 µM (inactive)
- GI50 (SR): > 100 µM (inactive)
- GI50 (UO-31): > 100 µM (inactive)
- GI50 (COLO 205): > 100 µM (inactive)
- GI50 (Malme-3M): > 100 µM (inactive)
- GI50 (786-0): > 100 µM (inactive)
- GI50 (HL-60): > 100 µM (inactive)
- GI50 (M14): > 100 µM (inactive)
- GI50 (MDA-N): > 100 µM (inactive)
- GI50 (EKVX): > 100 µM (inactive)
- GI50 (HCC 2998): > 100 µM (inactive)
- GI50 (MCF7): > 100 µM (inactive)
- GI50 (HOP-62): > 100 µM (inactive)
- GI50 (MOLT-4): > 100 µM (inactive)
- GI50 (SK-MEL-28): > 100 µM (inactive)
- GI50 (PC-3): > 100 µM (inactive)
- GI50 (HCT-116): > 100 µM (inactive)
- GI50 (BT-549): > 100 µM (inactive)
- GI50 (RXF 393): > 100 µM (inactive)
- GI50 (NCI-H522): > 100 µM (inactive)
- GI50 (MDA-MB-435): > 100 µM (inactive)
- GI50 (OVCAR-5): > 100 µM (inactive)
